The results in this text go back to patent US20250228239A1, “MOLECULES HAVING PESTICIDAL UTILITY, AND INTERMEDIATES, COMPOSITIONS, AND PROCESSES, RELATED THERETO” (priority 2024, published 2025).

What all share (type): in vivo
The test system of experiment [1] is Beet Armyworm (Spodoptera exigua, LAPHEG). As to the kind of experiment: Bioassays on Beet Armyworm (BAW), 128-well diet tray assay. The settings on record: Spodoptera exigua. An outline of the steps: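 Test molecule was dissolved in 90:10 acetone-water and applied at 50 μg/cm^2 onto artificial diet in eight wells, then dried. Second instar larvae, one to five per well, were added, and trays were kept vented at 25° C. with a 14:10 photoperiod for five to seven days before mortality was recorded.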

For experiment [2], the system named is Cabbage Looper (Trichoplusia ni, TRIPNI). Briefly: Bioassays on Cabbage Looper (CL), 128-well diet tray assay. The settings on record: Trichoplusia ni. The procedure, abridged: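 Test molecule was dissolved in 90:10 acetone-water, applied to artificial diet at 50 μg/cm^2 and allowed to dry. Second-instar larvae were then added, one to five per well, and trays held at 25° C for five to seven days before mortality was scored and averaged.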

Experiment [3] deals with Yellow Fever Mosquito (Aedes aegypti, AEDSAE). The settings on record: for YFM rating: Table ABC / ABC-DP rating. The procedure, abridged: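 Compounds from 4000 ppm DMSO stocks were diluted in 90:10 water/acetone and dispensed into wells, then infested with about 1-day-old larvae in liver-powder water. Covered plates were held at room temperature for 3 days and each well was scored for mortality against a rating scale; six replicate plates per compound.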

The test system of experiment [4] is Green Peach Aphid (Myzus persicae, MYZUPE). Briefly: Bioassays on Green Peach Aphid (GPA), foliar spray on cabbage seedlings. The settings on record: 72 h. The procedure, abridged: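 Percent control (Abbott-corrected versus solvent-sprayed plants) comes from live-aphid counts three days after treatment at about 25° C. Test solution at 200 ppm was sprayed to runoff onto both leaf surfaces of cabbage seedlings infested a day earlier with 20-50 aphids; four replicate pots.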

Where [5] appears, read: Beet Armyworm, Table ABC / ABC-DP rating, read-out: BAW rating.
Where [6] appears, read: Cabbage Looper, Table ABC / ABC-DP rating, read-out: CL rating.
[7] abbreviates: Green Peach Aphid, Table ABC / ABC-DP rating, read-out: GPA rating.
Setting [8] is: Beet Armyworm, rating class, read-out: BAW.
The mark [9] stands for this setting: Cabbage Looper, rating class, read-out: CL.
Where [10] appears, read: Yellow Fever Mosquito, rating class.
[11] abbreviates: Green Peach Aphid, rating class, read-out: GPA.
[12] abbreviates: Table ABC: Biological Results, species BAW, read-out: BAW.
[13] abbreviates: Table ABC: Biological Results, species CL, read-out: CL.
Setting [14] is: Table ABC: Biological Results, species YFM.
The mark [15] stands for this setting: Table ABC: Biological Results, species GPA, read-out: GPA.

Where two headings read alike, the source gives them in different places.

Regarding `Cc1cc(NC(=O)[C@H]2[C@H](c3ccc(F)c(Cl)c3)C2(Cl)Cl)cc(C(=O)NCCCCl)c1Cl` (relative stereo) [F2040, trans-2-Chloro-N-(3-chloropropyl)-5-(2,2-dichloro-3-(3-chloro-4-fluorophenyl)cyclopropane-1-carboxamido)-3-methylbenzamide], the pest or weed control at 50 µg/cm2 in experiment [1] (setting [5]) and in experiment [2] (setting [6]) was 50 to 100% throughout. For the same molecule, in experiment [3] (Yellow Fever Mosquito), the YFM rating result is “A (80–100)”. Further, in experiment [4] (setting [7]), the pest or weed control at 200 µg/mL lay within 0 to 80%.
As for `CC(C)C(=O)Nc1c(F)ccc(NC(=O)c2cc(NC(=O)[C@H]3[C@H](c4ccc(F)c(C(F)(F)F)c4)C3(Cl)Cl)ccc2Cl)c1F` [F1483, 2-Chloro-5-((1R,3R)-2,2-dichloro-3-(4-fluoro-3-(trifluoromethyl)phenyl)cyclopropane-1-carboxamido)-N-(2,4-difluoro-3-isobutyramidophenyl)benzamide], the pest or weed control at 50 µg/cm2 in experiment [1] (setting [8]) and in experiment [2] (setting [9]) was 50 to 100% throughout. For the same molecule, the YFM entry in experiment [3] (setting [10]) is on record as “A (80–100)”. Besides, the pest or weed control at 200 µg/mL in experiment [4] (setting [11]) lay in the range of 0 to 80%.
For `O=C(Nc1cc(NC(=O)C(F)(F)F)c(F)cc1F)c1cc(NC(=O)[C@H]2[C@H](c3ccc(Cl)c(Cl)c3)C2(Cl)Cl)ccc1Cl` [F1245, 2-Chloro-5-((1R,3R)-2,2-dichloro-3-(3,4-dichlorophenyl)cyclopropane-1-carboxamido)-N-(2,4-difluoro-5-(2,2,2-trifluoroacetamido)phenyl)benzamide], the pest or weed control at 50 µg/cm2 in experiment [1] (setting [12]) and in experiment [2] (setting [13]) was 50 to 100% throughout. Further, the YFM result in experiment [3] (setting [14]) is “A (80–100)”. Besides, the pest or weed control at 200 µg/mL in experiment [4] (setting [15]) is 0 to 80%.
In the case of `O=C(Nc1ccc(F)cc1F)c1cc(NC(=O)[C@H]2[C@H](c3cc(Cl)c(Cl)c(C(F)(F)F)c3)C2(Cl)Cl)ccc1Cl` (relative stereo) [F1147, trans-2-Chloro-5-(2,2-dichloro-3-(3,4-dichloro-5-(trifluoromethyl)phenyl)cyclopropane-1-carboxamido)-N-(2,4-difluorophenyl)benzamide], the pest or weed control at 50 µg/cm2 in experiment [1] (setting [12]) and in experiment [2] (setting [13]) was 50 to 100% each time. Moreover, the YFM result in experiment [3] (setting [14]) is on record as “A (80–100)”. Further, the pest or weed control at 200 µg/mL in experiment [4] (setting [15]) fell in the range of 80 to 100%.
On to `CCCC(=O)Nc1c(F)ccc(NC(=O)c2cc(NC(=O)[C@H]3[C@H](c4cc(Cl)c(Cl)c(Cl)c4)C3(Cl)Cl)ccc2Cl)c1F` [F1655, N-(3-Butyramido-2,4-difluorophenyl)-2-chloro-5-((1R,3R)-2,2-dichloro-3-(3,4,5-trichlorophenyl)cyclopropane-1-carboxamido)benzamide], for which the pest or weed control at 50 µg/cm2 in experiment [1] (setting [8]) and in experiment [2] (setting [9]) was 50 to 100% each time. Further, the YFM entry in experiment [3] (setting [10]) is listed as “B (More than 0 – Less than 80)”. Further, in experiment [4] (setting [11]), the pest or weed control at 200 µg/mL was in the range of 0 to 80%.
`O=C(Nc1c(F)ccc(NC(=O)C(F)F)c1F)c1cc(NC(=O)[C@H]2[C@H](c3ccc(F)c(Cl)c3)C2(Cl)Cl)ccc1Cl` [F1234, 2-Chloro-5-((1R,3R)-2,2-dichloro-3-(3-chloro-4-fluorophenyl)cyclopropane-1-carboxamido)-N-(3-(2,2-difluoroacetamido)-2,6-difluorophenyl)benzamide]: the pest or weed control at 50 µg/cm2 in experiment [1] (setting [12]) and in experiment [2] (setting [13]) was 50 to 100% each time. Further, the YFM entry in experiment [3] (setting [14]) is on record as “A (80–100)”. For the same molecule, in experiment [4] (setting [15]), the pest or weed control at 200 µg/mL is 80 to 100%.
As to `O=C1CCC(C(=O)Nc2c(F)ccc(NC(=O)c3cc(NC(=O)[C@H]4[C@H](c5ccc(F)c(C(F)(F)F)c5)C4(Cl)Cl)ccc3Cl)c2F)O1` (stereo partly drawn) [F1625, N-(3-(2-Chloro-5-((1R,3R)-2,2-dichloro-3-(4-fluoro-3-(trifluoromethyl)phenyl)cyclopropane-1-carboxamido)benzamido)-2,6-difluorophenyl)-5-oxotetrahydrofuran-2-carboxamide], the pest or weed control at 50 µg/cm2 in experiment [1] (setting [8]) and in experiment [2] (setting [9]) was 50 to 100% throughout. The YFM entry in experiment [3] (setting [10]) is “A (80–100)”. Besides, in experiment [4] (setting [11]), the pest or weed control at 200 µg/mL was 0 to 80%.
Consider `O=C(Nc1ccc(F)c(NC(=O)C(F)(F)Cl)c1F)c1cc(NC(=O)[C@H]2[C@H](c3ccc(Cl)c(Cl)c3)C2(Cl)Cl)ccc1Cl` [F1248, 2-Chloro-N-(3-(2-chloro-2,2-difluoroacetamido)-2,4-difluorophenyl)-5-((1R,3R)-2,2-dichloro-3-(3,4-dichlorophenyl)cyclopropane-1-carboxamido)benzamide], for which the pest or weed control at 50 µg/cm2 in experiment [1] (setting [12]) and in experiment [2] (setting [13]) was 50 to 100% in each case. The YFM result in experiment [3] (setting [14]) was “A (80–100)”. For the same molecule, in experiment [4] (setting [15]), the pest or weed control at 200 µg/mL lay in the range of 80 to 100%.
As to `Cc1c(NC(=O)c2cc(NC(=O)[C@H]3[C@H](c4cc(Cl)cc(Cl)c4)C3(Cl)Cl)ccc2Cl)ccc([N+](=O)[O-])c1C` (relative stereo) [F1180, trans-2-chloro-5-(2,2-dichloro-3-(3,5-dichlorophenyl)cyclopropane-1-carboxamido)-N-(2,3-dimethyl-4-nitrophenyl)benzamide], the pest or weed control at 50 µg/cm2 in experiment [1] (setting [12]) and in experiment [2] (setting [13]) was 50 to 100% in each case. Also, the YFM result in experiment [3] (setting [14]) was “A (80–100)”. The pest or weed control at 200 µg/mL in experiment [4] (setting [15]) was in the range of 0 to 80%.
Regarding `O=C(Nc1ccccc1)c1c(F)ccc(NC(=O)[C@H]2[C@H](c3ccc(F)c(Cl)c3)C2(Cl)Cl)c1F` (relative stereo) [F1108, trans-3-(2,2-Dichloro-3-(3-chloro-4-fluorophenyl)cyclopropane-1-carboxamido)-2,6-difluoro-N-phenylbenzamide], the pest or weed control at 50 µg/cm2 in experiment [1] (setting [12]) and in experiment [2] (setting [13]) was 50 to 100% each time. The YFM entry in experiment [3] (setting [14]) is “A (80–100)”. The pest or weed control at 200 µg/mL in experiment [4] (setting [15]) lay in the range of 80 to 100%.
With `O=C(CNC(=O)c1cc(NC(=O)[C@H]2[C@H](c3cc(Cl)cc(Cl)c3)C2(Cl)Cl)ccc1Cl)NCCC(F)(F)F` (relative stereo) [F2081, trans-2-Chloro-5-(2,2-dichloro-3-(3,5-dichlorophenyl)cyclopropane-1-carboxamido)-N-(2-oxo-2-(3,3,3-trifluoropropylamino)ethyl)benzamide], the pest or weed control at 50 µg/cm2 in experiment [1] (setting [5]) and in experiment [2] (setting [6]) was 50 to 100% in each case. In experiment [3] (Yellow Fever Mosquito), the YFM rating result is listed as “A (80–100)”. Moreover, the pest or weed control at 200 µg/mL in experiment [4] (setting [7]) was 80 to 100%.
Turning to `O=C(Nc1ccc(F)c(NC(=O)C(F)F)c1F)c1cc(NC(=O)[C@H]2[C@H](c3ccc(Cl)c(C(F)(F)F)c3)C2(Cl)Cl)ccc1Cl` [F1657, 2-Chloro-5-((1R,3R)-2,2-dichloro-3-(4-chloro-3-(trifluoromethyl)phenyl)cyclopropane-1-carboxamido)-N-(3-(2,2-difluoroacetamido)-2,4-difluorophenyl)benzamide], the pest or weed control at 50 µg/cm2 in experiment [1] (setting [8]) and in experiment [2] (setting [9]) was 50 to 100% throughout. The YFM result in experiment [3] (setting [10]) is “A (80–100)”. The pest or weed control at 200 µg/mL in experiment [4] (setting [11]) lay within 80 to 100%.
Take `O=C(Nc1ccc(F)c(NC(=O)C(F)F)c1F)c1cc(NC(=O)[C@H]2[C@H](c3ccc(F)cc3)C2(Cl)Cl)ccc1Cl` (relative stereo) [F1598, trans-2-Chloro-5-(2,2-dichloro-3-(4-fluorophenyl)cyclopropane-1-carboxamido)-N-(3-(2,2-difluoroacetamido)-2,4-difluorophenyl)benzamide]: the pest or weed control at 50 µg/cm2 in experiment [1] (setting [8]) and in experiment [2] (setting [9]) was 50 to 100% throughout. The YFM entry in experiment [3] (setting [10]) is “A (80–100)”. In addition, in experiment [4] (setting [11]), the pest or weed control at 200 µg/mL fell in the range of 80 to 100%.
